Here are results for eight compounds from ChEMBL document CHEMBL1142604, “Chamazulene carboxylic acid and matricin: a natural profen and its natural prodrug, identified through similarity to synthetic drug substances” (J Nat Prod, 2006).

Series [1] has as its system Rattus norvegicus. Nature of the series: Antiinflammatory activity in rat assessed as inhibition of carrageenan-induced right paw edema at 300 mg/kg after 1 hr. The class given is functional. In general terms: The carrageenan paw model is a standard test of acute inflammation.
Series [2] concerns Rattus norvegicus. The experiment in a line: Antiinflammatory activity in rat assessed as inhibition of carrageenan-induced right paw edema at 600 mg/kg after 3 hrs. The format is functional.
Series [3] relates to Rattus norvegicus. Nature of the series: Antiinflammatory activity in rat assessed as inhibition of carrageenan-induced right paw edema at 600 mg/kg after 1 hr. The format is functional.
The nature of series [4]: Lipophilicity, log D at pH 7.4. The format is physicochemical. The conditions noted are these: buffer.
The test system of series [5] is Mus musculus. Nature of the series: Antiinflammatory activity in mouse assessed as inhibition of phorbol […]-induced ear lobe edema at 1 umol/ear after 6 hrs relative to control. The class given is functional.
Series [6] in a line: Reduction in prostaglandin metabolite level in human urine at 500 mg, po. The format is ADME. Also on record: scale not given: the % may be the effect or the level left. The conditions noted are these: in vivo.
The test system of series [7] is Mus musculus. The experiment in a line: Antiinflammatory activity in mouse assessed as inhibition of phorbol […]-induced ear lobe edema at 0.1 umol/ear after 6 hrs relative to control. The format is functional.
For series [8], the system named is Mus musculus. Nature of the series: Antiinflammatory activity in mouse assessed as inhibition of phorbol […]-induced ear lobe edema at 1 umol/ear after 24 hrs. The class given is functional.
In series [9] the test system is Mus musculus. Nature of the series: Antiinflammatory activity in mouse assessed as inhibition of phorbol […]-induced ear lobe edema at 0.1 umol/ear after 48 hrs relative to control. The format is functional.
Series [10] has as its system Mus musculus. The experiment in a line: Antiinflammatory activity in mouse assessed as inhibition of phorbol […]-induced ear lobe edema. The format is functional. The arrangement: scale not given: the % may be the effect or the level left.
The nature of series [11]: AUC (0 to infinity) in human at 500 mg, po. The conditions noted are these: plasma. Also on record: dose 500 mg, time infinity, route oral. The format is ADME, organism-based.
The nature of series [12]: Plasma concentration in human at 300 mg, po after 25 hrs. The format is ADME, organism-based.
The species named for series [13] is Homo sapiens. The experiment in a line: Plasma concentration in human by HPLC assay. The class given is ADME, organism-based. The conditions noted are these: in vivo.
For series [14], the system named is Homo sapiens. The experiment in a line: Volume of distribution in human at 500 mg, po. The class given is ADME, organism-based. The conditions noted are these: in vivo.
Series [15] has as its target T1, Prostaglandin G/H synthase 1 (Ovis aries) (UniProt P05979).
T1 sequence (whole entry): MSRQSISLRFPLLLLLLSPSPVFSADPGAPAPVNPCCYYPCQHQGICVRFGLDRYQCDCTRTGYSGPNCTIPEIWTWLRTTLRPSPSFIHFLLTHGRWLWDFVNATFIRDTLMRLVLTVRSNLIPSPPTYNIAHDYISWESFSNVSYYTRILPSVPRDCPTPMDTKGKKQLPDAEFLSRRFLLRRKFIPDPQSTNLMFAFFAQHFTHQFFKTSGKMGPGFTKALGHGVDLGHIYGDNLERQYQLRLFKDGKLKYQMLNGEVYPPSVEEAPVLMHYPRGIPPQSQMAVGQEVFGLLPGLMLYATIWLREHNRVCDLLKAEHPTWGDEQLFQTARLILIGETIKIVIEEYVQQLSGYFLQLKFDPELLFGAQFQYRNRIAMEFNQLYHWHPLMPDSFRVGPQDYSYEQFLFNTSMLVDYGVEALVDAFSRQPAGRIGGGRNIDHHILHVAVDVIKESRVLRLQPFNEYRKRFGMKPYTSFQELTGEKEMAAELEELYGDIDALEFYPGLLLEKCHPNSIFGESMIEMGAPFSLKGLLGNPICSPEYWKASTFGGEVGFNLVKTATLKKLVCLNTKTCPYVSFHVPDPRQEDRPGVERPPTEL
Nature of the series: Inhibition of ram COX1 at 50 uM.

Series [16] is described as follows: Plasma concentration in human at 300 mg, po after 5 hrs. The class given is ADME, organism-based.
A short description of series [17]: Elimination half life in human at 500 mg, po. The format is ADME, organism-based. The conditions noted are these: in vivo, read-out: beta t1/2 (converted).
Series [18] in a line: Elimination constant, beta in human at 500 mg, po. The class given is ADME, organism-based. The conditions noted are these: in vivo.
Series [19] has as its system Mus musculus. The experiment in a line: Antiinflammatory activity in mouse assessed as inhibition of phorbol […]-induced ear lobe edema at 1 umol/ear after 48 hrs relative to control. The format is functional.
Series [20] is described as follows: Cmax in human at 500 mg, po. The arrangement: dose 500 mg, route oral. The conditions noted are these: in vivo. The format is ADME, organism-based.
Series [21] can be described thus: Dissociation constant, pKa of the compound. The format is physicochemical.
Series [22] can be described thus: Plasma concentration in human at 300 mg, po after 2.5 hrs. The class given is ADME, organism-based.
Series [23] can be described thus: Tmax in human at 500 mg, po. The class given is ADME, organism-based. The conditions noted are these: in vivo.
Series [24] deals with Homo sapiens. Nature of the series: Absorption coefficient, Ka in human at 500 mg, po. The class given is ADME, organism-based. The conditions noted are these: in vivo.
The subject of series [25] is Homo sapiens. Nature of the series: Plasma concentration in human at 500 mg, po after 75 to 90 mins. The format is ADME, organism-based. The conditions noted are these: in vivo.
Series [26] has as its system Mus musculus. Nature of the series: Antiinflammatory activity in mouse assessed as inhibition of phorbol […]-induced ear lobe edema at 0.1 umol/ear after 24 hrs relative to control. The class given is functional.
Series [27] can be described thus: Metabolic stability in artificial gastric fluid assessed as transformation to chamazulene carboxylic acid after 60 mins. The class given is physicochemical. The conditions noted are these: simulated gi fluid, 1 h.

One may read the inhibition in vivo as how much of the control response was suppressed. On to `Cc1ccc([C@H](C)C(=O)OCOC(=O)C(C)(C)C)cc2c(C)ccc1-2`, for which, in the series on Rattus norvegicus [1], the inhibition in vivo at 300 mg/kg worked out at 34.8%.

`COC(=O)[C@@H](C)c1ccc(C)c2ccc(C)c-2c1`: the inhibition in vivo at 300 mg/kg with Rattus norvegicus [1] worked out at 22.8%.

Regarding `CC(=O)Oc1ccccc1C(=O)O` [ASPIRIN], the results for the inhibition in vivo at 600 mg/kg with Rattus norvegicus [2] and with Rattus norvegicus [3] were 77.3% and 92.4%, respectively.

In general, logD refers to lipophilicity at a set pH, counting ionised and neutral species. A word on the AUC(0-inf): it is total exposure, with the tail of the curve extrapolated. By inhibition is commonly meant the share of the control response that was lost under treatment. Usually Cmax stands for the highest concentration seen after dosing. Broadly, the pKa is the negative logarithm of the acid dissociation constant. In general, Tmax refers to the time at which the peak concentration occurs. `Cc1ccc([C@H](C)C(=O)O)cc2c(C)ccc1-2` [CHAMAZULENE CARBOXYLIC ACID] gave a logD in series [4] of 0.79. In addition, the “inhibition (INH)” value in the series on Mus musculus [5] turned out to be 38%; in the series on Mus musculus [7], 12%; with Mus musculus [8], 14%; in the series with Mus musculus [9], 35%; in the series on Mus musculus [19], 24%; in the series with Mus musculus [26] it was 19%. The inhibition in vivo at 300 mg/kg in the series with Rattus norvegicus [1] was 17.4%. Moreover, the Activity amounted to 40% in series [6] and 23% with Mus musculus [10]. The area under the curve AUC(0-inf) in series [11] came out at 14700 ng·h/mL. In series [12], this compound registered a concentration at 25 h of 2900 ng/mL. Also, the Cp amounted to 100 ng/mL in the series filed under Homo sapiens [13] and 900 ng/mL with Homo sapiens [25]. For the same compound, in the series with Homo sapiens [14], the Vd stood at 133 L. Besides, the inhibition in series [15] is 17.4%. This compound also gave a concentration at 5 h in series [16] of 2400 ng/mL. For the same compound, the half-life in series [17] was 4 h. The compound further had a k el in series [18] of 4.72e-05 s⁻¹. In series [20], this compound showed a Cmax of 900 ng/mL. Besides, the pKa in series [21] worked out at 4.14. For the same compound, in series [22], the concentration at 2.5 h was 1700 ng/mL. The Tmax in series [23] turned out to be 1.25 h. For the same compound, in the series with Homo sapiens [24], the Ka amounted to 0.53 h⁻¹.

As for `CC(C)Cc1ccc([C@H](C)C(=O)O)cc1` [DEXIBUPROFEN], the logD in [4] amounted to 1.07.

The compound `CC(C(=O)O)c1ccc(-c2ccccc2)c(F)c1` (stereo not drawn) [FLURBIPROFEN] gave a logD in series [4] of 0.85. Further, in [21], the pKa came out at 4.6.

With `CC(=O)O[C@H]1CC(C)=C2C=C[C@@](C)(O)[C@@H]2[C@H]2OC(=O)[C@@H](C)[C@@H]21` [MATRICIN], the Stability result in series [27] is reported as “Stable”.

In the case of `COc1ccc2cc([C@H](C)C(=O)O)ccc2c1` [NAPROXEN], the “inhibition (INH)” value with Mus musculus [5] was 45%; with Mus musculus [7], 28%; in the series with Mus musculus [9] it was 18%; in the series with Mus musculus [19] it was 25%; in the series on Mus musculus [26], 21%. Also, the Activity with Mus musculus [10] is listed as 59%.
